Measurements as given in US20140303092A1 (CHIMERIX, INC., priority 2011, published 2014).
Several values for one entry are separate records, joined by “and”; a condition that tells them apart may be missing. Equal values may be shown once.

Tested on: CMV
Experiment: Study HDP-CDV-201: prevention or control of CMV infection in R+ HSCT recipients (efficacy)
Format: in vivo, human (adult allogeneic HSCT recipients)
Protocol: The clinical study of the current invention (HDP-CDV-201) was a 9-11 week randomized, placebo-controlled, double-blind, dose-escalation study (40 mg weekly [QW], 100 mg QW, 200 mg QW, 200 mg twice-weekly [BIW], and 100 mg BIW) of HDP-CDV for the prevention of CMV infection post-HCT. Treatment was initiated at the time of engraftment and continued until Week 13 post-HCT. HDP-CDV, at various doses, was active and well tolerated in the prevention CMV infection or disease.
Clinical Studies of HDP-CDV were performed and described in detail in the following Examples. For example, HDP-CDV-201 is a placebo-controlled, dose-escalating trial in HSCT CMV (R+) recipients, evaluating the ability of HDP-CDV to prevent or control CMV infection was carried out. Five cohorts were established in which participants or subjects received either placebo or the HDP-CDV orally, in doses ranging from 40 mg weekly (QW) to 200 mg twice weekly (BIW). Subjects who were post-HSCT were enrolled at the time of engraftment and randomized to HDP-CDV or placebo (3 to 1 ratio) and received blinded therapy until approximately 100 day post-transplantation. HDP-CDV doses were 40 mg QW, 100 mg QW, 200 mg QW, 200 mg BIW and 100 mg BIW. Escalation to the next dose was decided by the data monitoring committee after review of the safety data from the previous Cohort. Subjects who developed CMV disease or CMV infection requiring pre-emptive therapy with local standard of care were discontinued from blinded therapy and followed for 4 weeks. Subjects who completed treatment with blinded therapy were followed for 8 weeks post-therapy.
The primary endpoint was defined as the incidence of CMV disease at any time during treatment or CMV DNAemia≧200 copies/mL at the end of treatment. All subjects who received at least one dose of drug/placebo and had at least one efficacy evaluation post baseline were included in the primary analysis, regardless of their CMV DNAemia status (negative or positive) at baseline (mITT population). Results for the pooled HDP-CDV Cohorts and for each Cohort separately were analyzed versus that for pooled placebo.
The primary efficacy measure for this study was treatment failure, defined as the occurrence of CMV infection, defined as CMV DNAemia>200 copies/mL at the End of Treatment or diagnosis of CMV disease at any time during the treatment period. For the analysis, the following definitions apply:
For subjects who completed the treatment phase of the study, the End of Treatment was defined as the latest assessment from date of the last dose of study drug and up to 7 days for QW dosing, or the date of the last dose of study drug and up to 4 days for BIW dosing. For subjects who discontinued during the treatment phase of the study, the End of Treatment was defined as the date of the last dose of study drug.
The time to event was defined as the period between FDD and date of first occurrence of the event of interest (inclusive). The events included onset of CMV DNAemia, onset of CMV disease, and discontinuation because of excluded anti-CMV medications. Time to event/onset was derived as (the event/onset date—FDD)+1.
As detailed in the Statistical Analysis Plan, a modified CMV stratum was defined prior to conducting the statistical analysis based upon polymerase chain reaction (PCR) results from the central laboratory. If any positive CMV DNA value in plasma was collected before the first dose of study drug (including Screening, Pre-dose, (combined Screening/Pre-dose), CMV for stratification, and FDD), then the subject was placed into the modified CMV positive (≧100 copies/mL) stratum, otherwise the subject was in the modified CMV negative stratum. […]

[1] = 200 mg QW, modified CMV negative stratum
[2] = 200 mg QW, whole study period, CMV DNA negative at baseline
[3] = All HDP-CDV, CMV modified strata: negative
[4] = All HDP-CDV, CMV modified strata: positive

**Q.** With CCCCCCCCCCCCCCCCOCCCOP(=O)(O)COC(CO)Cn1ccc(N)nc1=O (stereo not drawn) [HDP-CDV] as the molecule, how does the “Subjects Receiving Antiviral Therapy and/or had CMV disease” value (200 mg QW, mITT) read?
**A.** 7 (17.9%) subjects (%)

**Q.** And the “Subjects without a CMV event” value (200 mg QW, mITT)?
**A.** 32 (82.1%) subjects (%)

**Q.** And the “Time to Antiviral Therapy, Median” value (200 mg QW, mITT)?
**A.** 40.0 days

**Q.** What about the “Rate of CMV Disease or End of Treatment CMV Infection (≧200 copies/ml)” value (200 mg QW, mITT, missing=infection) of the same molecule?
**A.** 31% and 30.8%

**Q.** What about the “Rate of CMV DNAemia ≧1000 copies/mL during the treatment period” value (200 mg QW, mITT, post hoc) of the same molecule?
**A.** 18% and 17.9%

**Q.** And the “Time to Antiviral Therapy, Mean” value (200 mg QW, mITT, censored values not included)?
**A.** 38.1 days

**Q.** And the “% CMV Event Rate: Incidence of CMV DNAemia >100 copies/mL During Treatment (Fisher analysis, ref 14.3.3.2.1)” value [1]?
**A.** 7 (24.1%) subjects (%)

**Q.** And the “% CMV Event Rate: Incidence of CMV DNAemia ≧1,000 copies/mL at any time during treatment” value [1]?
**A.** 2 (6.9%) subjects (%)

**Q.** What about the “Combined CMV event rate (CMV disease, viremia requiring treatment, viremia ≧1000 copies/mL)” value [1] of the same molecule?
**A.** 13.8%

**Q.** And the “Subjects Who Had CMV-related Event (CMV disease, CMV DNAemia ≧1,000 c/mL or initiation of anti-CMV treatment)” value [1]?
**A.** 4 (13.8%) subjects (%)

**Q.** What about the “Subjects without a CMV-related event” value [1] of the same molecule?
**A.** 25 (86.2%) subjects (%)

**Q.** And the “Developed CMV DNAemia (≧100 copies/mL) during the treatment period” value (200 mg QW, plasma CMV DNA negative at baseline, mITT)?
**A.** 7 (23.3%) N(%)

**Q.** And the “Time to CMV DNAemia (≧100 copies/mL), Median” value (200 mg QW, treatment period, CMV DNA negative at baseline)?
**A.** 15.0 days

**Q.** And the “Time to CMV DNAemia (≧100 copies/mL), Mean” value (200 mg QW, treatment period, CMV DNA negative at baseline, censored values not included)?
**A.** 22.6 days

**Q.** And the “Number of Subjects who had CMV DNAemia (≧100 copies/mL) by the end of study” value [2]?
**A.** 11

**Q.** And the “Time to CMV DNAemia (≧100 copies/mL), Mean” value [2]?
**A.** 36.3 days

**Q.** And the “Time to CMV DNAemia (≧100 copies/mL), Median” value [2]?
**A.** 36.0 days

**Q.** What about the “subjects with emergence of viremia between end of treatment and end of treatment-free follow-up” value (8 weeks follow-up) of the same molecule?
**A.** less than 10%

**Q.** What about the “% CMV Event Rate, primary: CMV DNAemia >200 copies/mL at end of treatment OR CMV disease during treatment” value (shortened to “% CMV Event Rate, primary”) (All HDP-CDV (N = 133), CMV modified strata: negative) of the same molecule?
**A.** 21 (15.8%) subjects (%)

**Q.** And the “% CMV Event Rate, primary” value (All HDP-CDV (N = 162), aGVHD strata: negative)?
**A.** 41 (25.3%) subjects (%)

**Q.** And the “% CMV Event Rate, primary” value (All HDP-CDV (N = 171), mITT)?
**A.** 43 (25.1%) subjects (%)

**Q.** And the “Difference (HDP-CDV minus placebo) in infection rate” value [3]?
**A.** −14.0%

**Q.** And the “Difference (HDP-CDV minus placebo) in rate of CMV DNAemia ≧1,000 copies/ml” value [3]?
**A.** −25.9%

**Q.** And the “Rate of CMV DNAemia ≧1,000 copies/ml during the treatment period” value [3]?
**A.** 6.0%

**Q.** What about the “Rate of CMV Disease or End of Treatment CMV Infection” value [3] of the same molecule?
**A.** 15.8%

**Q.** What about the “Difference (HDP-CDV minus placebo) in rate of CMV DNAemia ≧1,000 copies/mL” value [4] of the same molecule?
**A.** −28.1%

**Q.** What about the “Rate of CMV DNAemia ≧1,000 copies/mL during the treatment period” value [4] of the same molecule?
**A.** 55.3%

**Q.** And the “Rate of CMV Disease or End of Treatment CMV Infection” value (All HDP-CDV, aGVHD randomization strata: negative)?
**A.** 25.3%

**Q.** What about the “Difference (HDP-CDV minus placebo) in infection rate” value (All HDP-CDV, aGVHD strata: negative) of the same molecule?
**A.** −6.8%

**Q.** And the “Difference (HDP-CDV minus placebo) in rate of CMV DNAemia ≧1000 copies/mL” value (All HDP-CDV, mITT)?
**A.** −25.4%

**Q.** What about the “Difference (HDP-CDV minus placebo) in rate of CMV disease or end of treatment CMV infection” value (All HDP-CDV, mITT) of the same molecule?
**A.** −12.1%

**Q.** And the “Rate of CMV DNAemia ≧1000 copies/mL during the treatment period” value (All HDP-CDV, mITT, post hoc)?
**A.** 17.0%

**Q.** What about the “% CMV Event Rate: Incidence of CMV DNAemia ≧1,000 copies/mL at any time during treatment” value (All HDP-CDV, modified CMV negative stratum) of the same molecule?
**A.** 8 (6.0%) subjects (%)

**Q.** And the “CMV disease/infection rate (primary endpoint)” value (All cohorts combined, aGVHD positive strata (2 of 9))?
**A.** 22.2%

**Q.** What about the “CMV DNAemia rate over whole study period” value (Cohorts 100 mg QW, 200 mg QW and 100 mg BIW) of the same molecule?
**A.** ~35%

**Q.** And the “% CMV Event Rate, primary” value (Combined 100 mg QW, 200 mg BIW, 100 mg BIW (N = 86), CMV modified strata: negative)?
**A.** 8 (9.3%) subjects (%)

**Q.** And the “Rate of CMV DNAemia ≧1000 copies/mL during the treatment period” value (Exploratory analysis, cohorts that met endpoint (200 mg QW, 200 mg BIW, 100 mg BIW combined), mITT)?
**A.** 11% and 10.9%

**Q.** And the “Difference (HDP-CDV minus placebo) in rate of CMV DNAemia ≧1000 copies/mL” value (Exploratory analysis, cohorts that met endpoint, mITT)?
**A.** −23.2%

**Q.** And the “Incidence of composite endpoint (initiation of anti-CMV therapy or CMV disease or CMV DNAemia >1,000 copies/mL)” value (Higher doses (≧200 mg QW))?
**A.** less than 15%

**Q.** What about the “Incidence of CMV disease or initiation of anti-CMV preemptive therapy” value (Pooled HDP-CDV, mITT) of the same molecule?
**A.** 22% and 21.6%

**Q.** And the “overall rates of CMV DNAemia detectable at any time during treatment” value (across doses of 100 mg QW and higher)?
**A.** 17.4 to 23.8%

**Q.** What about the “subjects who developed CMV disease” value (doses of 100 mg QW or higher (4/146)) of the same molecule?
**A.** 2.7%

**Q.** What about the “subjects who developed CMV disease” value (doses of 200 mg per week or higher (1/119)) of the same molecule?
**A.** 0.8%

**Q.** And the “CMV disease/infection rate (primary endpoint)” value (doses ≧100 mg QW combined, aGVHD positive strata (1 out of 7))?
**A.** 14.3%

**Q.** And the “failure rate, exploratory endpoint” value (pooled 100 mg QW, 200 mg BIW, 100 mg BIW, CMV negative stratum (8 of 86))?
**A.** 9%
